Data published in patent US20230258569A1, “REAGENT FOR MEASURING SKIN SENSITIZATION, COMPOUND, AND METHOD FOR MEASURING SKIN SENSITIZATION” (FUJIFILM Corporation, priority 2020, published 2023).
Structures can show the parent of a compound that is named as a salt.

Legend:
[1] = Reactivity (% depletion) of nucleophilic reagent Compound 1 with test substance, HPLC; skin sensitization prediction; settings: for reactivity of Compound 1 in comparison with GSH-NBD / reactivity of Compound 1 in comparison with NAC and NAL in ADRA / reactivity of Compound 1 in comparison with NAC-amide / reactivity of Compound 1 in comparison with the cysteine peptide and the lysine peptide in DPRA: FIG. 3, FIG. 4; for reactivity of Compound 1 with the substance: in words
[2] = in vivo; cited from earlier work
[3] = prediction results published in the literature; cited from earlier work
[4] = prediction results published in the literature; cited from earlier work; remark: listed apart in the source
[5] = DPRA (direct peptide reactivity assay); settings: in words
Description: For example, [Gerberick, G. F., Vassallo, J. D., Bailey, R. E., Chaney, J. G., Morrall, S. W., and Lepoittevin, J. P. (2004). Development of a peptide reactivity assay for screening contact allergens. Toxicological Sciences, 81 (2), pp. 332-343] and [Gerberick, G. F., Vassallo, J. D., Foertsch, L. M., Price, B. B., Chaney, J. G., and Lepoittevin, J. P. (2007). Quantification of chemical peptide reactivity for screening contact allergens: a classification tree model approach. Toxicological Sciences, 97 (2), pp. 417-427] describe a method using two types of peptides (a cysteine peptide and a lysine peptide) as nucleophilic reagents. In addition, JP2011-59102A and JP2014-37995A describe a reagent for measuring skin sensitization and a method for measuring skin sensitization, using a cysteine derivative into which an aryl ring has been introduced and a lysine derivative into which an aryl ring has been introduced as nucleophilic reagents (also referred to as ADRA).
Natsch A. and Gfeller H. (2008). […] Quantification of chemical peptide reactivity for screening contact allergens: a classification tree model approach. […]
One type of nucleophilic reagent (Compound 1) was evaluated. In addition, the following compounds were also evaluated in the same manner as controls for comparison of the reactivity to the fifteen types of evaluation substances. • Cys peptide • Lys peptide

[6] = Stability of nucleophilic reagent (residual ratio, HPLC-UV); format: physicochemical
Description: Immediately after preparation of the reaction solution (0 hours) and after incubation of the reaction solution at 25° C. for 24 hours (24 hours), the reaction solution is measured by HPLC-UV. At this time, since the nucleophilic reagent and the oxidized form and modified form of the nucleophilic reagent can be confirmed on HPLC, the residual ratio of the nucleophilic reagent is calculated based on the following equation.
Residual ratio (%) of nucleophilic reagent=area value of nucleophilic reagent/(area value of nucleophilic reagent+area value of oxidized form of nucleophilic reagent+area value of modified form of nucleophilic reagent)×100

SMILES	reactivity of Compound 1 in comparison with GSH-NBD [1]	reactivity of Compound 1 in comparison with NAC and NAL in ADRA [1]	reactivity of Compound 1 in comparison with NAC-amide [1]	reactivity of Compound 1 in comparison with the cysteine peptide and the lysine peptide in DPRA [1]	depletion of Compound 1 ([1]; pH 7.4) [%]	depletion of Compound 1 ([1]; pH 8.0) [%]	Category of LLNA sensitization [2]	ADRA prediction [3]	DPRA prediction [4]	reactivity of Compound 1 with the substance [1]	reactivity with the cysteine peptide in DPRA [5]	residual ratio of nucleophilic reagent ([6]; after 24 hours, 25° C.) [%]	residual ratio of nucleophilic reagent ([6]; immediately after solution preparation (0 hours)) [%]
O=C(O)c1ccc2c(c1)C(=O)OC2=O [Trimellitic anhydride]	GSH-NBD showed higher reactivity	NAL showed higher reactivity than Compound 1	higher reactivity	same level of reactivity	41.0	37.2	Strong	Positive	Positive	–	–	–	–
COc1ccc(C(C)=O)cc1 [4′-Methoxyacetophenone]	–	same level of reactivity	same level of reactivity	same level of reactivity	–	–	None	Negative	Negative	–	–	–	–
CCCCCCI [Compound 1-Iodohexane, 1-Iodohexane]	–	same level of reactivity	same level of reactivity	–	–	–	None	Negative	–	no reactivity	reactive	–	–
CCOC(=O)CC(=O)c1ccccc1 [Ethyl benzoylacetate]	–	same level of reactivity	same level of reactivity	same level of reactivity	–	–	None	Negative	Negative	–	–	–	–
NNC(=O)[C@H](CS)NC(=O)Cc1cccc2ccccc12 [Compound 1]	–	–	–	–	–	–	–	–	–	–	–	≥ 85	≥ 90
CCCCCC(C=O)=Cc1ccccc1 [α-Pentyl cinnamaldehyde]	higher reactivity	higher reactivity	higher reactivity	higher reactivity	–	–	Weak	–	–	–	–	–	–
O=c1cccccc1O [Tropolone]	–	higher reactivity	same level of reactivity	lower reactivity	–	–	Moderate	–	Positive	–	–	–	–
COC(=O)C(C)=O [Methyl pyruvate]	higher reactivity	higher reactivity	higher reactivity	higher reactivity	–	–	Moderate	–	–	–	–	–	–
O=c1c(-c2ccccc2)c1-c1ccccc1 [Diphenylcyclopropenone]	–	higher reactivity	same level of reactivity	same level of reactivity	–	–	–	Positive	Positive	–	–	–	–
CC(C=O)Cc1ccc(C(C)C)cc1 (centres unmarked) [Cyclamen aldehyde]	higher reactivity	higher reactivity	higher reactivity	higher reactivity	–	–	Weak	–	Positive	–	–	–	–
CCCCCCCCC(=O)Cl [Nonanoyl chloride]	GSH-NBD showed higher reactivity	higher reactivity	same level of reactivity	higher reactivity	–	–	Moderate	Positive	–	–	–	–	–
CCCCBr [1-Bromobutane]	–	same level of reactivity	same level of reactivity	–	–	–	–	Negative	–	no reactivity	reactive	–	–
CCC=C1OC(=O)c2ccccc21 [3-Propylidene phthalide]	–	same level of reactivity	same level of reactivity	lower reactivity	–	–	Moderate	–	Positive	–	–	–	–
CCOS(=O)(=O)OCC [Diethyl sulfate]	–	–	–	–	–	–	–	–	Positive	–	–	–	–
O=C(Oc1ccccc1)c1ccccc1 [Phenyl benzoate]	–	higher reactivity	same level of reactivity	lower reactivity	–	–	Weak	–	Positive	–	–	–	–
